Test results from paper PMC8318231, “Rate-of-Kill (RoK) assays to triage large compound sets for Chagas disease drug discovery: Application to GSK Chagas Box” (PLoS Neglected Tropical Diseases, 2021).

Experiments:
[1] = test system: H9c2 (rat cardiomyocytes); experiment: RoK assay, number of host cells nuclei (drug-related cytotoxicity, H9c2 output, Cmin_Tox); conditions: H9c2 host cells
How it was run: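 Host-cell toxicity is read as DRAQ5-stained nuclei counts from automated confocal imaging of T. cruzi-infected H9c2 cells, tracked across time at each concentration. Cmin_Tox denotes the lowest compound concentration dropping host cell number under 50% of initial cell density.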

[2] = test system: T. cruzi Tulahuen trypomastigotes; experiment: T. cruzi trypomastigote assay (Cell Titer-Glo viability, ATP luminescence); format: cell-based, Trypanosoma cruzi; conditions: for Trypomastigotes pIC50 48 hours: 48 hours incubation; for Trypomastigotes pIC50 48 hours / Trypomastigotes pIC50 72 hours: pIC50 = -log10 IC50 in molar units; for Trypomastigotes pIC50 72 hours: 72 hours incubation; for 72 pIC50 (trypomastigotes, raw data of Fig 1D): 72 hours, plotted values, censored values given without sign; for 48 pIC50 / 72 pIC50: trypomastigote assay; for 48 pIC50: 48 h; for 72 pIC50: 72 h; for activity in trypomastigotes assay (in words): 48 and 72 hours
How it was run: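 Compounds were tested in dose response or once at a final 5 μM against 5 × 10^4 trypomastigotes per well (DMEM, 2% FBS), collected on days 5–8 from LLC-MK2 infected cultures. ATP luminescence via CellTiter-Glo reports live parasites; DMSO defines 0% and cell-free wells 100% effect.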

SMILES	Cmin_Tox [1] [µM]	Trypomastigotes pIC50 48 hours [2]	Trypomastigotes pIC50 72 hours [2]	72 pIC50 (trypomastigotes, raw data of Fig 1D) [2]	48 pIC50 ([2]; figure 1A)	72 pIC50 ([2]; figure 1A)	72 pIC50 ([2]; figure 1B)	activity in trypomastigotes assay (in words) [2]
Cc1nccn1C1CCCN(C(=O)c2cc3c(F)cccc3s2)C1 (stereo not drawn) [TCMDC-143498]	>50	4.7	4.7	4.7	4.7	4.7	4.7	
O=c1[nH]ccc2ccc(-c3ccncc3)cc12 [TCMDC-143631]	>50	< 4.3	< 4.3	< 4.3	< 4.3	< 4.3	< 4.3	
O=C(Nc1ccc(Br)c(Cl)c1)Nc1ccc2c(c1)OCO2 [TCMDC-143588]	>50	5.5	< 4.3					
Cc1nn(C)c(Cl)c1CN(Cc1cccnc1)Cc1ccsc1 [TCMDC-143477]	>50	< 4.3	< 4.3	< 4.3	< 4.3	< 4.3	< 4.3	
CCCCNc1nccc(-c2c(-c3ccc(F)cc3)nn3c(N4CCOCC4)cccc23)n1 [TCMDC-143617]	>50	5.1	< 4.3					
CC(C)(C)C(Cn1ccnc1)NC(=O)c1ccc2nc(C3CC3)oc2c1 (stereo not drawn) [TCMDC-143336]	>50	5	< 4.3					
O=C(NCCc1ccccn1)C(c1cn[nH]c1)N1CCN(c2ccc(Cl)c(Cl)c2)CC1 (stereo not drawn) [TCMDC-143411]	>50	< 4.3	< 4.3	< 4.3	< 4.3	< 4.3	< 4.3	
CCOc1cnn(C)c(=O)c1Nc1ccc(C(=O)NCc2ccc(F)cc2)cc1 [TCMDC-143319]	>50	< 4.3	< 4.3	< 4.3	< 4.3	< 4.3	< 4.3	
COc1ccc(S(=O)(=O)NCc2ccc(-c3ccc(CN(C)CCO)cc3)cc2)cc1.O=C(O)C(F)(F)F [TCMDC-143549]	>50	4.6	< 4.3					
Clc1ccc(Sc2cnccc2N2CCOCC2)cc1 [TCMDC-143602]	>50	4.5	< 4.3					
Cc1nc2nc(C)c(Cc3ccc(C(C)C)cc3)c(=O)n2[nH]1 [TCMDC-143087]	>50	5.8	5.9					active versus trypomastigotes at 48 and 72 hours with the same potency
O=C(NC1C(=O)N(c2ccccc2)C1c1cccnc1)c1ccc(Cl)s1 (stereo not drawn) [TCMDC-143324]	>50	< 4.3	< 4.3	< 4.3	< 4.3	< 4.3	< 4.3	
CS(=O)(=O)c1cccc(CNC(=O)c2cncc(N3CCN(c4ccc(F)cc4)CC3)c2)c1.O=C(O)C(F)(F)F.O=C(O)C(F)(F)F.O=C(O)C(F)(F)F [TCMDC-143385]	>50	< 4.3	< 4.3	< 4.3	< 4.3	< 4.3	< 4.3	
CCCN1CCN(Cc2ccc(S(=O)(=O)Nc3cccc(C)c3)cc2)CC1.O=C(O)C(F)(F)F.O=C(O)C(F)(F)F [TCMDC-143550]	>50	< 4.3	< 4.3	< 4.3	< 4.3	< 4.3	< 4.3	
O[C@H]1CC[C@H](Nc2nccc(-c3sc(C4CCOCC4)nc3-c3ccc(F)c(F)c3)n2)CC1 [TCMDC-143387]	16.7	4.5	< 4.3					
Cn1cc(CN2CCN(c3ccc4c(c3)CCN(C(=O)[C@H]3C[C@@H]3c3ccccc3)CC4)CC2)cn1 [TCMDC-143537]	>50	5	4.9					
CN1CCCN(C(=O)c2ccc(N3CCCC3)cc2Cl)CC1 [TCMDC-143127]	>50	< 4.3	< 4.3	< 4.3	< 4.3	< 4.3	< 4.3	
CCCCn1nnnc1CSc1nc(C)cc(C)c1C#N [TCMDC-143315]	>50	6.6	6.8					
Cc1ccc(C)c(OC2CCN(C(=O)C(C)n3ccnc3)CC2)c1 (stereo not drawn) [TCMDC-143481]	>50	< 4.3	< 4.3	< 4.3	< 4.3	< 4.3	< 4.3	
CC(=Cc1ccccc1)CN1CCC(=O)N(Cc2cccnc2)CC1 [TCMDC-143421]	>50	4.7	< 4.3					
Cc1c(C(C)NC(=O)Nc2cccc(Cl)c2)sc2ncnn12 (stereo not drawn) [TCMDC-143405]	>50	< 4.3	< 4.3	< 4.3	< 4.3	< 4.3	< 4.3	
CN(Cc1ccc(C(N)=O)cc1)C(c1ccc(F)cc1)c1cccnc1 (stereo not drawn) [TCMDC-143504]	>50	< 4.3	< 4.3	< 4.3	< 4.3	< 4.3	< 4.3	
N#Cc1cc(N2CCCC2=O)ccc1Sc1ccccc1CO [TCMDC-143604]	>50	< 4.3	< 4.3	< 4.3	< 4.3	< 4.3	< 4.3	
COc1ccc(NS(=O)(=O)c2cccc(NC(=O)c3cc(F)cc(F)c3)c2)cc1 [TCMDC-143108]	>50	5	5.6					
COc1ccccc1-c1c(C)[nH]c2nc(N)nc(C)c12 [TCMDC-143610]	>50	6.4	6.5					active
CCC(=O)Nc1ccc(-c2nc3ccc(Cl)cc3[nH]2)cc1 [TCMDC-143135]	>50	5.3	5.4					
